Experiments:
neuro-2a (N2a) cells = test: Neurite outgrowth assay; assay type: cell-based, mouse; conditions: 72 h, vehicle 14.22 ± 2.9%
SIRT1 = target: T1, SIRT1 (Homo sapiens, UniProt Q96EB6); test: Fluor de Lys SIRT1 assay
T1 sequence (Q96EB6 1-747): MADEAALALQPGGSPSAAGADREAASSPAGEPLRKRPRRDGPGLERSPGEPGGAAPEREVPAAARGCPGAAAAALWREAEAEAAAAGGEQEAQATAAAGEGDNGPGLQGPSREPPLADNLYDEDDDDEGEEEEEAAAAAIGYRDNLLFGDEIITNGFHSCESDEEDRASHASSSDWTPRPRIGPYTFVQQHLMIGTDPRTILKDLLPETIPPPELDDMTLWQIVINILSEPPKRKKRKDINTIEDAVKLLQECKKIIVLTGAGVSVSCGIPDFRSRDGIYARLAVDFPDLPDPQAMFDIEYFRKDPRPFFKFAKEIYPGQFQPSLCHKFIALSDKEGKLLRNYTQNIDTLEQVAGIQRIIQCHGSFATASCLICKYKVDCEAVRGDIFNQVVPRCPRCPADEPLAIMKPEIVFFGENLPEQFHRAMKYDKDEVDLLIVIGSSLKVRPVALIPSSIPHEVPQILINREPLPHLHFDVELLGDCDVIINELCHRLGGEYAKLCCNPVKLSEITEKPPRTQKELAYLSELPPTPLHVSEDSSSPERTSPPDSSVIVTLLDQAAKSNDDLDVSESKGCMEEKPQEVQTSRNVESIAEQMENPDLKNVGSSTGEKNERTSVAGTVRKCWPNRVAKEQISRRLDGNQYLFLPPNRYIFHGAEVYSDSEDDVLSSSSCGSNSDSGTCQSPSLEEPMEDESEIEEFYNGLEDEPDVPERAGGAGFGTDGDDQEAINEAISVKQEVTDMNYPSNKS

MDA-MB-231 cells = test: Cell growth assay (AlamarBlue), MDA-MB-231; assay type: cell-based, human; conditions: 72 h of treatment
SIRT5 = target: T2, SIRT5 (Homo sapiens, UniProt Q9NXA8); test: Fluor de Lys SIRT5 assay
T2 sequence (Q9NXA8 37-310): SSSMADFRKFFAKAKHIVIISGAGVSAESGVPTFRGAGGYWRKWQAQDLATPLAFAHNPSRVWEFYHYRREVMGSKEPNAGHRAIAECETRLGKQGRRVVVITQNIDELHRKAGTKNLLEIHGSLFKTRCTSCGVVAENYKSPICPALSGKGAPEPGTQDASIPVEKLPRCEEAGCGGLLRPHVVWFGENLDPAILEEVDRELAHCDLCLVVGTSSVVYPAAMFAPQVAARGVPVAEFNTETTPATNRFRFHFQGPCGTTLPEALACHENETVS

H3K9Ac (SIRT1 substrate) = test: Western blot of H3K9Ac in MDA-MB-231 cells; assay type: cell-based, human; conditions: 6 h
Experimental: (§1) MCF-7 and MDA-MB-231 cells were plated in 96-well plates (initial density: 1 × 10^3 cells per well) and incubated at 37 °C. After 24 h, test compound solutions (50 μL/well) of varying concentrations in medium (DMEM and Leibovitz's L-15 for MCF-7 and MDA-MB-231 cells respectively) for were added to the cells at 37 °C under 5% CO2 in air and left to react for 72 h. Thereafter, the mixtures were treated with 10 μL of AlamarBlue® (AbD Serotec, #BUF012A), incubation was continued at 37 °C for 3 h. The fluorescence in each well was measured with an ARVOTM X3 microplate reader (λex = 540 nm; λem = 590 nm). With the obtained fluorescence readings, it was possible to calculate the percentage of cell growth.
(§2) MDA-MB-231 cells (5 × 10^5 cells/2 mL/dish) were treated for 6 h with the test compounds at the indicated concentrations in the cell culture medium, before the cells were collected and extracted with SDS buffer. The protein concentrations of the lysates were determined using a BCA protein assay.
(§3) Equivalent amounts of protein from each lysate were resolved in 5–20% SDS-polyacrylamide gels and transferred onto PVDF membranes. […]
(§4) For the differentiation study, the medium was changed to DMEM supplemented with 2% FBS. After incubation with or without 36 for 72 h, the cell morphology was examined using a microscope (Olympus CKX41) and further analyzed with the Photomeasure software (Kenis Ltd.). […]

[1] = HPLC stability under SIRTs assay conditions; assay type: physicochemical; conditions: buffer pH 8.0, 30 °C, 0–200 min
Experimental: HPLC stability of 36 under SIRTs assay conditions
Compound 36 (10 μL, 0.5 mM) in DMSO/buffer (50 mM Tris/HCl, pH = 8.0, 137 mM NaCl, 2.7 mM KCl, 1 mM MgCl2) was added to selected wells, followed by 40 μL of buffer (50 mM Tris/HCl, pH = 8.0, 137 mM NaCl, 2.7 mM KCl, 1 mM MgCl2). The obtained solution was incubated at 30 °C and 250 rpm for 0, 50, 100, 150, and 200 min. At the end of each incubation time, the wells were diluted with CH3CN (50 μL, HPLC grade). The entire volume (100 μL) was transferred to a Cosmospin filter H (0.45 μm) and 20 μL of the filtrate were injected in the HPLC instrument. Column:
(90%), 30–40 min (90–10%). The peak area was determined at 220 nm. […]

[2] = tested on: acetylated α-tubulin (SIRT2 substrate); test: Western blot of acetylated α-tubulin in MDA-MB-231 cells; assay type: cell-based, human; conditions: 20 μM, 6 h
Experimental: as §1, §2, §3, §4

Compound: C[C@H](NC(=O)[C@H](CCCCNC(=S)CNC(=O)c1ccccc1Nc1cccc(OCCc2ccccc2)c1)NC(=O)OCc1ccccc1)C(N)=O [Compound 36]
- percentage of differentiated cells (neuro-2a (N2a) cells; 0.5 μM): 23.09 ± 3.21%
- percentage of differentiated cells (neuro-2a (N2a) cells; 1 μM): 25.73 ± 1.3%
- IC50 (SIRT1): 1.56 ± 0.06 µM
- inhibition at 1 µM (SIRT1; read-out: % inhibition at 1 μM SIRT1): 29.5 ± 2.1%
- GI50 (MDA-MB-231 cells): 8.43 ± 0.24 µM
- GI50 (MDA-MB-231 cells; Homo sapiens, MDA-MB-231, 72 h): 8.3 µM
- inhibition at 10 µM (SIRT5; read-out: % inhibition at 10 μM SIRT5): 4 ± 2.6%
- inhibition at 50 µM (SIRT5; read-out: % inhibition at 50 μM SIRT5): 10%
- H3K9Ac level (western blot) (H3K9Ac (SIRT1 substrate)): did not upregulate
- HPLC stability under SIRTs assay conditions [1]: stable
- acetylated α-tubulin level (western blot) [2]: induced the accumulation of acetylated α-tubulin
